Laboratory results: ChEMBL document CHEMBL3797118, “New Colchicine-Derived Triazoles and Their Influence on Cytotoxicity and Microtubule Morphology” (ACS Med Chem Lett, 2016)
Activity calls are given as the source filed them. The rule behind the calls is not given here.

How the values were obtained:
[1] = Cytotoxicity against human THP1 cells after 24 hrs by Celltiter-Glo luminescent cell viability assay; type: functional, cell-based; conditions: THP-1, 24 h
[2] = system: Jurkat; test: Cytotoxicity against human Jurkat cells after 48 hrs by Celltiter-Glo luminescent cell viability assay; type: functional, cell-based
[3] = system: HeLa; test: Cytotoxicity against human HeLa cells after 48 hrs by Celltiter-Glo luminescent cell viability assay; type: functional, cell-based
[4] = system: A549; test: Cytotoxicity against human A549 cells after 48 hrs by Celltiter-Glo luminescent cell viability assay; type: functional, cell-based; conditions: A549, 48 h
[5] = Cytotoxicity against human SKMES1 cells after 48 hrs by Celltiter-Glo luminescent cell viability assay; type: functional, cell-based; conditions: SK-MES-1, 48 h
[6] = system: MDA-MB-231; test: Inhibition of microtubule network formation in human MDA-MB-231 cells at 100 nM after 24 hrs by DAPI staining based immunofluorescence microscopic analysis; type: cell-based
[7] = system: MDA-MB-231; test: Inhibition of microtubule network formation in human MDA-MB-231 cells assessed as centrosome declustering at 100 nM after 24 hrs by DAPI staining based immunofluorescence microscopic analysis; type: cell-based
[8] = system: H1975; test: Inhibition of microtubule network formation in human H1975 cells assessed as centrosome declustering at 500 nM after 24 hrs by DAPI staining based immunofluorescence microscopic analysis; type: cell-based

Row | SMILES | IC50 [1] | IC50 [2] | other results
1 | COc1cc2c(c(OC)c1OC)-c1ccc(OC)c(=O)cc1[C@@H](N=[N+]=[N-])CC2 | 20.9 nM | – | –
2 | COc1cc2c(c(OC)c1OC)-c1ccc(OC)c(=O)cc1[C@@H](n1cc(CNC(=O)OC(C)(C)C)nn1)CC2 | 23.1 nM | – | –
3 | COc1cc2c(c(OC)c1OC)-c1ccc(OC)c(=O)cc1[C@@H](n1cc(CCC(=O)OCc3cccc(F)c3)nn1)CC2 | 9.3 nM | 4.9 nM | –
4 | CC(=O)O[C@H]1C(=O)[C@@]2(C)[C@H]([C@H](OC(=O)c3ccccc3)[C@]3(O)C[C@H](OC(=O)[C@H](O)[C@@H](NC(=O)c4ccccc4)c4ccccc4)C(C)=C1C3(C)C)[C@]1(OC(C)=O)CO[C@@H]1C[C@@H]2O [PACLITAXEL] | – | – | IC50 [3]: 18.9 nM; IC50 [4]: 13.2 nM; IC50 [5]: 13.5 nM; inhibition [6]: inactive
5 | COc1cc2c(c(OC)c1OC)-c1ccc(OC)c(=O)cc1[C@@H](n1cc(COC(=O)CCCCCNC(=O)OC(C)(C)C)nn1)CC2 | 5.4 nM | 9.4 nM | –
6 | COc1cc2c(c(OC)c1OC)-c1ccc(OC)c(=O)cc1[C@@H](n1cc(COC(=O)[C@H](CC(C)C)NC(=O)OC(C)(C)C)nn1)CC2 | 6.6 nM | – | –
7 | COc1cc2c(c(OC)c1OC)-c1ccc(OC)c(=O)cc1[C@@H](n1cc(COC(=O)[C@H](Cc3ccccc3)NC(=O)OCc3ccccc3)nn1)CC2 | 23.3 nM | 21.4 nM | –
8 | COc1cc2c(c(OC)c1OC)-c1ccc(OC)c(=O)cc1[C@@H](n1cc(COC(=O)[C@H](Cc3ccccc3)NC(=O)OC(C)(C)C)nn1)CC2 | 4.1 nM | 15.3 nM | IC50 ([3]; read-out: IC50): 70.7 nM; IC50 [4]: 73.7 nM; IC50 [5]: 39.2 nM; inhibition [6]: Active; inhibition [7]: Active; inhibition [8]: Active
9 | COc1cc2c(c(OC)c1OC)-c1ccc(OC)c(=O)cc1[C@@H](NC(C)=O)CC2 [COLCHICINE] | 20.4 nM | – | IC50 ([3]; read-out: IC50): 21.8 nM; IC50 [4]: 23.9 nM; IC50 [5]: 18.6 nM; inhibition [6]: Active
10 | COc1cc2c(c(OC)c1OC)-c1ccc(OC)c(=O)cc1[C@@H](n1cc(CCC(=O)OCc3ccccc3F)nn1)CC2 | 12.7 nM | 9.7 nM | –
11 | COc1cc2c(c(OC)c1OC)-c1ccc(OC)c(=O)cc1[C@@H](n1cc(COC(=O)CCNC(=O)OC(C)(C)C)nn1)CC2 | 5.7 nM | 5 nM | IC50 ([3]; read-out: IC50): 20 nM; IC50 [4]: 25.4 nM; IC50 [5]: 9.6 nM; inhibition [6]: Active
12 | COc1cc2c(c(OC)c1OC)-c1ccc(OC)c(=O)cc1[C@@H](n1cc(C(=O)OCc3ccccc3)nn1)CC2 | 140 nM | – | –
13 | COc1cc2c(c(OC)c1OC)-c1ccc(OC)c(=O)cc1[C@@H](n1cc(CCC(=O)OCc3ccc(F)cc3)nn1)CC2 | 5.1 nM | 2.9 nM | IC50 ([3]; read-out: IC50): 4.9 nM; IC50 [4]: 5.5 nM; IC50 [5]: 3.5 nM; inhibition [6]: Active
14 | COc1cc2c(c(OC)c1OC)-c1ccc(OC)c(=O)cc1[C@@H](n1cc(COC(=O)[C@@H](NC(=O)OC(C)(C)C)C(C)C)nn1)CC2 | 8.1 nM | – | –
15 | COc1cc2c(c(OC)c1OC)-c1ccc(OC)c(=O)cc1[C@@H](n1cc(COC(=O)[C@H](CCSC)NC(=O)OC(C)(C)C)nn1)CC2 | 10.6 nM | – | –
16 | COc1cc2c(c(OC)c1OC)-c1ccc(OC)c(=O)cc1[C@@H](n1cc(CCC(=O)OCc3ccccc3)nn1)CC2 | 31 nM | – | –
17 | COc1cc2c(c(OC)c1OC)-c1ccc(OC)c(=O)cc1[C@@H](n1cc(CCCCC(=O)OCc3ccccc3)nn1)CC2 | 35.2 nM | 16.7 nM | –
18 | COc1cc2c(c(OC)c1OC)-c1ccc(OC)c(=O)cc1[C@@H](n1cc(COC(=O)[C@H](Cc3ccccc3)NC(C)=O)nn1)CC2 | 25.5 nM | 84.2 nM | –
19 | COc1cc2c(c(OC)c1OC)-c1ccc(OC)c(=O)cc1[C@@H](n1cc(COC(=O)[C@H](Cc3c[nH]c4ccccc34)NC(=O)OC(C)(C)C)nn1)CC2 | 7.3 nM | – | –
20 | CC[C@H](C)[C@H](NC(=O)OC(C)(C)C)C(=O)OCc1cn([C@H]2CCc3cc(OC)c(OC)c(OC)c3-c3ccc(OC)c(=O)cc32)nn1 | 17.3 nM | – | –
21 | COc1cc2c(c(OC)c1OC)-c1ccc(OC)c(=O)cc1[C@@H](n1cc(COC(=O)[C@@H](N)Cc3ccccc3)nn1)CC2 | 24 nM | 25.1 nM | –
